We go through 2 molecules from US20210345607A1, “MICROEMULSION FORMULATION CONTAINING CLACYFOS HERBICIDE, PREPARATION METHOD THEREFOR AND USE THEREOF” (Central China Normal University, priority 2018, published 2021).

SMILES strings stand for the structures.

Series [1] deals with wheat. In words: Safety of 15% and 25% clacyfos microemulsion used in wheat fields, increase in production (B9). Type of series: in vivo. The text has this:
The microemulsion of 15% clacyfos (the amount of clacyfos added is 15%, the preparation process is referred to preparation example A3) is in the dosage range of 180 g/hm^2 to 600 g/hm^2. The microemulsion of 25% clacyfos (the addition amount of the clacyfos is 25%, the preparation process is referred to preparation example A7) is in the dosage range of 150 g/hm^2 to 720 g/hm^2. At various testing areas, clacyfos was used by stems and leaves treatment of wheat field wheat seedlings.

Series [2] deals with Dicotyledonous and sedge weeds. In words: Clacyfos weeding spectrum, indoor and field tests (B12). Type of series: in vivo. Conditions: recommended dosage of 450 g/hm^2. The text has this:
Combining the results of indoor and field tests of clacyfos, the herbicidal spectrum of clacyfos can be summarized as follows: […]

Series [3] has as its system monocotyledonous weeds. Described as above. Conditions: 700 g/hm^2 to 800 g/hm^2. Type of series: in vivo. The text has this: (§1) Combining the results of indoor and field tests of clacyfos, the herbicidal spectrum of clacyfos can be summarized as follows:
(§2) Echinochloa crusgalli Beava; Digitaria Sanguinalis scop; Alopecurus aequalis; Alopecurus japonicus steud; Setaria viridis; Cynodon dactylon; Eleusine indica; Leptochloa chinensis; Arthraxon hispidus; Eleusine indica; Imperata cyllndrlca; Cyperus difformis; Cyperus iria; Kyllinga brevifolia; Poa cnnua; Monochoria vaginalis; Potamogeton distinctus; Sagittaria pygmaea; Cyperus iria; Eleocharis yokoscensis; Digitaria adscendens; Equisetum arvenense.

Series [4] relates to Daucus carota L. The series is described as follows: Inhibitory activity of clacyfos against 22 plants or weeds (B12). Conditions: in vivo.
Source text: as §1, §2

Series [5] deals with Setaria viridis(L.) Beauv. The series is described as above. The settings on record: in vivo.
Source text: as §1, §2

Series [6] has as its system Herba Cirsii Jeponici. The series is described as above. Conditions: in vivo.
Source text: as §1, §2

The subject of series [7] is Amaranthus rebroflexus L. The description is as above. Conditions: in vivo.
Source text: as §1, §2

In series [8] the test system is Beta Vulgaris. The series is described as above. The settings on record: in vivo.
Source text: as §1, §2

Series [9] relates to Cyperus microiria. The series is described as above. Conditions: in vivo.
Source text: as §1, §2

In series [10] the test system is Echinochloa crusgalli (L.). The description is as above. Conditions: in vivo.
Source text: as §1, §2

Series [11] deals with Rumex crispus L. The series is described as above. Conditions: in vivo.
Source text: as §1, §2

The subject of series [12] is Amaranthus retroflexus. The series is described as above. The settings on record: in vivo.
Source text: as §1, §2

Series [13] relates to Brassica pekinensis. The description is as above. The settings on record: in vivo.
Source text: as §1, §2

In series [14] the test system is Sinapis alba. Described as above. The settings on record: in vivo.
Source text: as §1, §2

The subject of series [15] is Chenopodium album L. Described as above. The settings on record: in vivo.
Source text: as §1, §2

Series [16] deals with Ipomoea heperacea. The series is described as above. Conditions: in vivo.
Source text: as §1, §2

The subject of series [17] is Poa annua L. The series is described as above. Conditions: in vivo.
Source text: as §1, §2

Series [18] deals with Abutilontheophrasti Medicus. The description is as above. Conditions: in vivo.
Source text: as §1, §2

Series [19] deals with Digitaria sanguinalis(L.) Scop. The description is as above. Conditions: in vivo.
Source text: as §1, §2

For series [20], the system named is Eclipta prostrata L. The description is as above. The settings on record: in vivo.
Source text: as §1, §2

In series [21] the test system is Galium aparine. The description is as above. Conditions: in vivo.
Source text: as §1, §2

Series [22] deals with Medicago saliva. The description is as above. Conditions: in vivo.
Source text: as §1, §2

For series [23], the system named is Eleusine indica (L.) Gaertn. Described as above. Conditions: in vivo.
Source text: as §1, §2

Series [24] deals with Brassica campestris. The series is described as above. The settings on record: in vivo.
Source text: as §1, §2

The subject of series [25] is Alopecurus aequalis Sobol. Described as above. Conditions: in vivo.
Source text: as §1, §2

On to `Cc1cc(Cl)ccc1OCC(=O)O` [2-methyl-4-chlorophenoxyacetic acid], for which, in series [1] (Henan, 32.5 g/mu), the “Increase in production compared with the control agent” value is on record as “acid 32.5 g (5.51%)” and the phytotoxicity to wheat entry is listed as “a certain phytotoxicity”. In series [1] (Zaoyang, 40 g/mu), the “Increase in production compared with the control agent” value is given as “acid 40 g (20.91%)”.
For the molecule `COP(=O)(OC)C(C)OC(=O)COc1ccc(Cl)cc1Cl` (centres unmarked) [clacyfos, O, O-dimethyl-1-(2,4-dichlorophenoxyacetoxy) ethyl phosphonate], in series [2], the “control of the dicotyledonous and sedge weeds listed” value is on record as “can be effectively controlled”. In addition, the “control of the monocotyledonous weeds listed” value in series [3] is “can be controlled”. Besides, the Visual activity is given as 100% in series [4]; 50% in [5]; 100% in [6]; 100% in [7]; 95% in series [8]; 90% in series [9]. For the same molecule, the Visual activity in series [10] stood at 30%; in [11], 80%; in series [12] it was 100%; in [13], 100%; in [14], 95%; in series [15], 100%. Also, the Visual activity in [16] was 100%; in [17], 50%; in series [18], 85%; in series [19], 40%; in series [20], 100%; in [21] it was 60%. The Visual activity came to 90% in [22], 100% in [23], 100% in [24] and 0% in series [25]. For the same molecule, the Sensitivity entry was “Sensitive” in series [9]; “Sensitive” in series [11]; “Sensitive” in series [18]; “Sensitive” in [22]; “Resistance” in series [25].
